In patent publication US20240122897A1, “DMT SALTS AND THEIR USE TO TREAT BRAIN INJURY” (ALGERNON PHARMACEUTICALS INC., priority 2021, published 2024):
Like-named read-outs stand apart in the source and are kept apart here.

Key:
[1] = in vivo, cited from earlier work
[2] = test system: primary rat cortical neurons; experiment: Neurite outgrowth of primary rat cortical neurons (MAP-2 immunocytochemistry)
[3] = test system: cerebral ischemia-reperfusion injury; settings: rat; cited from earlier work
[4] = target: T1, sigma-1 receptor (Homo sapiens, UniProt Q99720)
Description: (§1) IC50 values were determined by a non-linear, least squares regression analysis using MathIQ™ (ID Business Solutions Ltd., UK). […] The Hill coefficient (nH), defining the slope of the competitive binding curve, was calculated using MathIQ™.
(§2) Biochemical assay results are presented as the percent inhibition of specific binding or activity. All other results are expressed in terms of that assay's quantitation method. Primary screening in duplicate with semi-quantitative data (e.g., estimated IC50, Ki and nH) are shown.

[5] = target: T1, sigma-1 receptor; experiment: biochemical; settings: for IC50: IC50, estimated, duplicate; for Ki: Cheng and Prusoff
Description: as §1, §2

[6] = target: T2, Serotonin (5-Hydroxytryptamine) 5-HT2A (Homo sapiens, UniProt P28223); experiment: biochemical; assay type: binding
T2 construct: purchased Eurofins Panlabs, Inc. 271650
T2 sequence (P28223 whole entry): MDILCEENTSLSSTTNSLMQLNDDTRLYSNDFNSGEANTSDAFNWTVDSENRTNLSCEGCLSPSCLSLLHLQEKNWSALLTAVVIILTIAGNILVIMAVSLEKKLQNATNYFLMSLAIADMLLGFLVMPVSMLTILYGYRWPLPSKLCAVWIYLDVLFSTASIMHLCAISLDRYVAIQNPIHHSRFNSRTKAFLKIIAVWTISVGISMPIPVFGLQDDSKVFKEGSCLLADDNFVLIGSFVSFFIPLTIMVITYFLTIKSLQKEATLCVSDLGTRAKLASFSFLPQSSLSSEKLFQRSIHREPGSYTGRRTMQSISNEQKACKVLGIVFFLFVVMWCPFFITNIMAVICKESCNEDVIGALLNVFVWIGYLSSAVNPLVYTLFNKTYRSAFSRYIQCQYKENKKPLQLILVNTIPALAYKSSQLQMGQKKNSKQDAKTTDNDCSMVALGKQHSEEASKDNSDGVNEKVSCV

T1 sequence (Q99720 whole entry): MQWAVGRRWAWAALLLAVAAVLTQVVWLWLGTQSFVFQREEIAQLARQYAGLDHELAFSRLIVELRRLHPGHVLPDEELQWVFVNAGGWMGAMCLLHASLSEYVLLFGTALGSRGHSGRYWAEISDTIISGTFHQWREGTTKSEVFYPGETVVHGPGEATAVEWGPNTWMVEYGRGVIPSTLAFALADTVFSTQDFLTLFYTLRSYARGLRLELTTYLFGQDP

Row | Compound | nH (Hill coefficient) [4] | % Inh. ([4]; 0.03 μM) [%] | % Inh. ([4]; 0.1 μM) [%] | % Inh. ([4]; 0.5 μM) [%] | % Inh. ([4]; 1 μM) [%] | % Inh. ([4]; 10 μM) [%] | IC50 [5] [nM] | Ki [5] [nM] | nH (Hill coefficient) [6] | % Inh. ([6]; 0.003 µM) [%] | % Inh. ([6]; 0.3 µM) [%] | IC50 [6] [nM] | Ki [6] [nM] | % Inh. ([4]; 10 nM, 0.01 µM) [%] | % Inh. ([4]; 5 μM) [%] | % Inh. ([4]; 16 μM) [%] | % Inh. ([6]; 0.01 µM) [%] | % Inh. ([6]; 0.03 μM) [%] | % Inh. ([6]; 1 μM) [%] | inhibition at 0.1 µM ([6]; read-out: % Inh.) [%] | also measured
1 | CN(C)CCc1c[nH]c2ccccc12 [DMT, N, N-Dimethyltryptamine] | – | – | – | – | – | – | – | – | – | – | – | – | – | – | – | – | – | – | – | – | oral availability ([1]; po): not orally available; half-life [1]: 15 min; neurite outgrowth of rat cortical neurons ([2]; DMT stimulation, overall): showed beneficial effects; functional recovery [3]: improved; infarct (dead cells) volume [3]: reduced
2 | CNC1(c2ccccc2Cl)CCCCC1=O (stereo not drawn) [Ketamine] | – | – | – | – | – | – | – | – | – | – | – | – | – | – | – | – | – | – | – | – | neurite outgrowth ([2]; 10 nM, 1-72 h stimulation): did not show any significant beneficial effects
3 | CN(C)CCc1c[nH]c2ccccc12.O=C(O)/C=C/C(=O)O [N,N-Dimethyltryptamine fumarate, reference compound] | 0.76 | 15 | 7 | 5 | 14 | 50 | 10200 | 5280 | 0.75 | 8 | 48 | 250 | 71 | – | – | – | – | – | – | – | % Inh. ([4]; 10 nM): 6%; inhibition at 5 µM ([5]; read-out: % Inh., 5 μM): 36%; inhibition at 16 µM ([5]; read-out: % Inh., 16 μM): 59%; % Inh. ([6]; 0.1 μM): 26%; % Inh. ([6]; 3 µM): 93%; % Inh. ([6]; 10 μM): 98%; inhibition at 0.01 µM ([6]; read-out: % Inh.): 15%; inhibition at 0.03 µM ([6]; read-out: % Inh.): 24%; inhibition at 1 µM ([6]; read-out: % Inh.): 76%
4 | CN(C)CCc1c[nH]c2ccccc12 [N,N-Dimethyltryptamine nicotinate] | – | −9 | −3 | −13 | 5 | 44 | – | – | 0.71 | – | 31 | 600 | 170 | −6 | 23 | 44 | 14 | 17 | 59 | 19 | binding affinity to sigma-1-receptors ([4]; at concentrations above 0.5 μM): good binding affinity; inhibition at 0.003 µM ([6]; read-out: % Inh.): 7%; inhibition at 3 µM ([6]; read-out: % Inh.): 79%; inhibition at 10 µM ([6]; read-out: % Inh.): 92%
5 | CN(C)CCc1c[nH]c2ccccc12 [N,N-Dimethyltryptamine pamoate] | 1.35 | −10 | 0 | 1 | 6 | – | 6310 | 3250 | 0.92 | 2 | – | 190 | 54 | −14 | 45 | 77 | 10 | 20 | 86 | 34 | affinity to sigma-1 receptors compared to DMT fumarate ([4]; at concentrations above 1 μM): better affinity; inhibition at 10 µM ([5]; read-out: % Inh., 10 μM): 64%; 5HT2A binding compared to DMT fumarate [6]: improved 5HT2A binding; inhibition at 0.3 µM ([6]; read-out: % Inh.): 56%; inhibition at 3 µM ([6]; read-out: % Inh.): 95%; inhibition at 10 µM ([6]; read-out: % Inh.): 100%
